Laboratory results reported in PubChem BioAssay (NCI).
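All cell lines were grown in 96-well plates and treated with compound for 48 hours. Here, GI50 denotes the concentration required for 50% inhibition of growth. TGI denotes the concentration required for complete inhibition of growth.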

Columns and labels:
Test in all cases: NCI tumour cell line growth inhibition, 48 h
MOLT-4 leukemia = tested on: MOLT-4 leukemia
MDA-MB-231 breast = tested on: MDA-MB-231 breast
HCT-15 colon = tested on: HCT-15 colon
UACC-257 melanoma = tested on: UACC-257 melanoma
HS 578T breast = tested on: HS 578T breast
PC-3 prostate = tested on: PC-3 prostate
TK-10 renal = tested on: TK-10 renal
SNB-75 CNS = tested on: SNB-75 CNS
MDA-MB-468 breast = tested on: MDA-MB-468 breast
HCT-116 colon = tested on: HCT-116 colon
UACC-62 melanoma = tested on: UACC-62 melanoma
EKVX NSCLC = tested on: EKVX NSCLC
OVCAR-4 ovarian = tested on: OVCAR-4 ovarian
ACHN renal = tested on: ACHN renal
HOP-62 NSCLC = tested on: HOP-62 NSCLC
SK-MEL-28 melanoma = tested on: SK-MEL-28 melanoma
U251 CNS = tested on: U251 CNS
NCI-H522 lung = tested on: NCI-H522 lung
CCRF-CEM leukemia = tested on: CCRF-CEM leukemia
UO-31 renal = tested on: UO-31 renal
LOX IMVI melanoma = tested on: LOX IMVI melanoma
MALME-3M melanoma = tested on: MALME-3M melanoma
SK-OV-3 ovarian = tested on: SK-OV-3 ovarian
OVCAR-3 ovarian = tested on: OVCAR-3 ovarian
A498 renal = tested on: A498 renal
HCC-2998 colon = tested on: HCC-2998 colon
OVCAR-5 ovarian = tested on: OVCAR-5 ovarian
T-47D breast = tested on: T-47D breast
A549 NSCLC = tested on: A549 NSCLC
SF-295 CNS = tested on: SF-295 CNS
RXF 393 renal = tested on: RXF 393 renal
SF-268 CNS = tested on: SF-268 CNS
NCI/ADR-RES ovarian = tested on: NCI/ADR-RES ovarian
NCI-H226 lung = tested on: NCI-H226 lung
SN12C renal = tested on: SN12C renal
DU-145 prostate = tested on: DU-145 prostate
NCI-H460 lung = tested on: NCI-H460 lung
OVCAR-8 ovarian = tested on: OVCAR-8 ovarian
IGROV1 ovarian = tested on: IGROV1 ovarian
MDA-MB-435 = tested on: MDA-MB-435
NCI-H23 lung = tested on: NCI-H23 lung
SK-MEL-5 melanoma = tested on: SK-MEL-5 melanoma
BT-549 breast = tested on: BT-549 breast
786-0 renal = tested on: 786-0 renal
RPMI-8226 leukemia = tested on: RPMI-8226 leukemia
M14 melanoma = tested on: M14 melanoma
HOP-92 NSCLC = tested on: HOP-92 NSCLC
CAKI-1 renal = tested on: CAKI-1 renal
SF-539 CNS = tested on: SF-539 CNS
SNB-19 CNS = tested on: SNB-19 CNS
SK-MEL-2 melanoma = tested on: SK-MEL-2 melanoma
KM12 colon = tested on: KM12 colon

`COc1ccc2[nH]cc(-c3cc(N)n4nc(-c5c[nH]c6ccccc56)cc4n3)c2c1` gave a GI50 (MOLT-4 leukemia) of 2.25 µM, a TGI (MOLT-4 leukemia) of 6.05 µM and a GI50 (MDA-MB-231 breast) of 1.91 µM. The TGI (MDA-MB-231 breast) was 3.58 µM, the GI50 (HCT-15 colon) was 1.66 µM and the TGI (HCT-15 colon) was 3.33 µM. For the same molecule, the GI50 (UACC-257 melanoma) was 1.73 µM, the TGI (UACC-257 melanoma) was 3.21 µM and the GI50 (HS 578T breast) was 6.69 µM. For the same molecule, the TGI (HS 578T breast) was > 100 µM, the GI50 (PC-3 prostate) was 3.33 µM and the TGI (PC-3 prostate) was 14.8 µM. For the same molecule, the GI50 (TK-10 renal) was 3.53 µM, the TGI (TK-10 renal) was 12.1 µM and the GI50 (SNB-75 CNS) was 11.2 µM. The TGI (SNB-75 CNS) was 29.2 µM, the GI50 (MDA-MB-468 breast) was 1.66 µM and the TGI (MDA-MB-468 breast) was 3.12 µM. The GI50 (HCT-116 colon) was 1.75 µM, the TGI (HCT-116 colon) was 3.12 µM and the GI50 (UACC-62 melanoma) was 1.73 µM. For the same molecule, the TGI (UACC-62 melanoma) was 3.16 µM, the GI50 (EKVX NSCLC) was 3.93 µM and the TGI (EKVX NSCLC) was 15.9 µM. It also gave a GI50 (OVCAR-4 ovarian) of 5.06 µM, a TGI (OVCAR-4 ovarian) of 17.8 µM and a GI50 (ACHN renal) of 2.62 µM. The TGI (ACHN renal) was 6.99 µM, the GI50 (HOP-62 NSCLC) was 3.14 µM and the TGI (HOP-62 NSCLC) was 7.88 µM. It also gave a GI50 (SK-MEL-28 melanoma) of 1.72 µM, a TGI (SK-MEL-28 melanoma) of 3.1 µM and a GI50 (U251 CNS) of 2.08 µM. The TGI (U251 CNS) was 4.67 µM, the GI50 (NCI-H522 lung) was 1.64 µM and the TGI (NCI-H522 lung) was 3.51 µM. For the same molecule, the GI50 (CCRF-CEM leukemia) was 2.6 µM, the TGI (CCRF-CEM leukemia) was 6.46 µM and the GI50 (UO-31 renal) was 1.86 µM. It also gave a TGI (UO-31 renal) of 4.65 µM, a GI50 (LOX IMVI melanoma) of 1.64 µM and a TGI (LOX IMVI melanoma) of 3.01 µM. The GI50 (MALME-3M melanoma) was 1.7 µM, the TGI (MALME-3M melanoma) was 3.07 µM and the GI50 (SK-OV-3 ovarian) was 15 µM. It also gave a TGI (SK-OV-3 ovarian) of 33.1 µM, a GI50 (OVCAR-3 ovarian) of 3.27 µM and a TGI (OVCAR-3 ovarian) of 16.6 µM. It also gave a GI50 (A498 renal) of 11.4 µM, a TGI (A498 renal) of 24.4 µM and a GI50 (HCC-2998 colon) of 1.77 µM. The TGI (HCC-2998 colon) was 3.38 µM, the GI50 (OVCAR-5 ovarian) was 3.86 µM and the TGI (OVCAR-5 ovarian) was 13.4 µM. The GI50 (T-47D breast) was 3.05 µM, the TGI (T-47D breast) was 26.3 µM and the GI50 (A549 NSCLC) was 3.14 µM. The TGI (A549 NSCLC) was 13.9 µM, the GI50 (SF-295 CNS) was 1.83 µM and the TGI (SF-295 CNS) was 3.55 µM. For the same molecule, the GI50 (RXF 393 renal) was 1.38 µM, the TGI (RXF 393 renal) was 3.48 µM and the GI50 (SF-268 CNS) was 9.09 µM. The TGI (SF-268 CNS) was 37.3 µM, the GI50 (NCI/ADR-RES ovarian) was 5.84 µM and the TGI (NCI/ADR-RES ovarian) was 24 µM. It also gave a GI50 (NCI-H226 lung) of 11.5 µM, a TGI (NCI-H226 lung) of 28 µM and a GI50 (SN12C renal) of 10.1 µM. It also gave a TGI (SN12C renal) of 22.8 µM, a GI50 (DU-145 prostate) of 5.19 µM and a TGI (DU-145 prostate) of 19.3 µM. It also gave a GI50 (NCI-H460 lung) of 2.74 µM, a TGI (NCI-H460 lung) of 7.59 µM and a GI50 (OVCAR-8 ovarian) of 4.12 µM. It also gave a TGI (OVCAR-8 ovarian) of 33.3 µM, a GI50 (IGROV1 ovarian) of 4.52 µM and a TGI (IGROV1 ovarian) of 17 µM. It also gave a GI50 (MDA-MB-435) of 2.04 µM, a TGI (MDA-MB-435) of 4.11 µM and a GI50 (NCI-H23 lung) of 3.15 µM. It also gave a TGI (NCI-H23 lung) of 10.2 µM, a GI50 (SK-MEL-5 melanoma) of 1.7 µM and a TGI (SK-MEL-5 melanoma) of 3.07 µM. For the same molecule, the GI50 (BT-549 breast) was 13.3 µM, the TGI (BT-549 breast) was 26.1 µM and the GI50 (786-0 renal) was 1.57 µM. The TGI (786-0 renal) was 3 µM, the GI50 (RPMI-8226 leukemia) was 2.37 µM and the TGI (RPMI-8226 leukemia) was 5.51 µM. It also gave a GI50 (M14 melanoma) of 1.79 µM, a TGI (M14 melanoma) of 3.32 µM and a GI50 (HOP-92 NSCLC) of 3.04 µM. For the same molecule, the TGI (HOP-92 NSCLC) was 11.9 µM, the GI50 (CAKI-1 renal) was 2.32 µM and the TGI (CAKI-1 renal) was 6.44 µM. The GI50 (SF-539 CNS) was 1.68 µM, the TGI (SF-539 CNS) was 3.05 µM and the GI50 (SNB-19 CNS) was 4.25 µM. The TGI (SNB-19 CNS) was 14.8 µM, the GI50 (SK-MEL-2 melanoma) was 1.83 µM and the TGI (SK-MEL-2 melanoma) was 3.8 µM. The GI50 (KM12 colon) was 2.21 µM and the TGI (KM12 colon) was 5.01 µM.
